Measurements taken from article PMC6455008, “Methylation at the C-3′ in D-Ring of Strigolactone Analogs Reduces Biological Activity in Root Parasitic Plants and Rice” (Frontiers in Plant Science, 2019).
Like-named read-outs stand apart in the source and are kept apart here.

Assays:
Arabidopsis seedlings [1] = experiment: Arabidopsis hypocotyl elongation assay; assay type: in vivo; conditions: compared to control seedlings; for inhibition of hypocotyl growth (reduction in hypocotyl length): 1.0 μM
Description: (§1) The sterilized Arabidopsis seeds were grown in petri plates that were first kept at 4°C in darkness for 3 days. For hypocotyl study, the petri plates were exposed to continuous white light for 24 h, then transferred to continuous monochromatic red light (20 μmol m^−2 s^−1, 22°C) conditions for another 4 days. For lateral root density, the plates were vertically grown at 22°C in Percival incubator under long day conditions (16 h at 22°C/8 h at 16°C day/night, 60% relative humidity, 60–70 μmol m^−2 s^−1 white light) for 8 days. After scanning, the hypocotyl length and number of lateral roots were recorded using publicly available ImageJ software.^1

Arabidopsis seedlings [2] = experiment: Arabidopsis lateral root density assay; assay type: in vivo; conditions: compared to control seedlings; for inhibition of lateral root density: 1.0 μM
Description: as §1

P. aegyptiaca seeds = experiment: Parasitic seed germination bioassay, Phelipanche; assay type: in vivo, Phelipanche aegyptiaca; conditions: for EC50: Phelipanche aegyptiaca; for P. aegyptiaca germination rate: non-formulated, 1.0 μM, 1 week at 25°C
Description: Germination activity of SL analogs on S. hermonthica and P. aegyptiaca seeds was tested by following the procedure described before ([Jamil et al., 2012]). The preconditioned Striga and Phelipanche seeds were treated with 50 μl of each SL analog solution at a concentration range (10^−5–10^−12 M). GR24 and sterile MilliQ water were included as positive and negative controls, respectively. The treated seeds were allowed to germinate in the dark for 24 h at 30°C (for Striga) and for 1 week at 25°C (for Phelipanche). The germinated and non-germinated seeds were counted under a binocular microscope, and germination rate (in %) was calculated.
Collected data were analyzed statistically using statistical software package R (version 3.2.2).

ShHTL7 = target: T1, ShHTL7 (Striga hermonthica, UniProt A0A0M3PNA2); experiment: In vitro YLG hydrolysis competition assay, ShHTL7; assay type: biochemical; conditions: 3.0 μM protein, 1.0 μM YLG, 60 min, room temperature; read-out: IC50, competitive inhibition of ShHTL7-mediated YLG hydrolysis
T1 sequence (A0A0M3PNA2 1-271): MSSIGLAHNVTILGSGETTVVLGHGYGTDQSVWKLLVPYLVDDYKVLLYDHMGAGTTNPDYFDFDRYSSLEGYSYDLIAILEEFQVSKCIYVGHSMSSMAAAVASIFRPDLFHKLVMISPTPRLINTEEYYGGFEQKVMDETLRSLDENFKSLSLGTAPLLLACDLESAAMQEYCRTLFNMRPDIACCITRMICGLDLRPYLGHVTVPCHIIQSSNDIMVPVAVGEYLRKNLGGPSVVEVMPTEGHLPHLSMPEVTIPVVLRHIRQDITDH
Description: Protein expression and purification of ShHTL7 and Oryza sativa D14 (OsD14) was carried out according to the procedure described earlier ([Jamil et al., 2018]). In vitro Yoshimulactone Green (YLG) hydrolysis assays ([Tsuchiya et al., 2015]) were carried out using 3.0 μM of protein ShHTL7 and OsD14 in a reaction buffer (1X PBS buffer, pH 7.3) with 0.1% DMSO at a 100-μl volume on a 96-well black plate (Greiner). For competitive assays, rac-GR24, AR8, MP13, and MP26 (at range between 0.01 and 50 μM) were co-incubated with 1.0 μM of YLG (Tokyo Chemical Industry Co. Ltd., product number E1238) for 60 min at room temperature. Fluorescent intensity was measured by spectraMax i5 (Molecular Devices) at excitation by 480 nm and detection by 520 nm. The change in fluorescence observed over the course of 1 h of YLG in buffer without protein was subtracted from the data collected in presence of protein. IC50 values were calculated by GraphPad (Prism 7).

Striga = Striga emergence after formulated MP13 in naturally infested farmer's field (pearl millet host); assay type: in vivo
Description: A naturally Striga-infested farmer’s field was selected near Kouaré research station ([…], 0°30′W) (Fada N’Gourma, Burkina Faso) to test suicidal activity of formulated MP13, taking formulated water treatment as control treatment. After onset of few rains, the field was thoroughly prepared by subsequent ploughing and planking. The experiment was laid out in a randomized complete block design with four plots or replications. Each plot consisted of two 3-m-long mounds and spaced with one mound between rows. Formulated MP13 and normal water (control) were applied twice in each plot (25 ml m^−2) following rains (~10 mm) to get a final concentration of 0.5 μM. Local pearl millet crop was sown at least 1 week after the second application. Data on the number of emerged Striga plants at three counting dates were collected in both fields on a plot basis. The three Striga counts were then used to calculate the average number of emerged Striga plants throughout the season.

[3] = read-out: EC50 P. aegyptiaca seed germination, formulated
[4] = read-out: EC50 P. aegyptiaca seed germination, non-formulated

CC1=C(C)C(O/C=C(\C)C=O)OC1=O (centres unmarked) [AR8, reference compound]
inhibition of hypocotyl growth (reduction in hypocotyl length) (Arabidopsis seedlings [1]): did not lead to a significant effect
inhibition of lateral root density (Arabidopsis seedlings [2]): did not lead to a significant effect
EC50 (P. aegyptiaca seeds; [3]): 320 nM
EC50 (P. aegyptiaca seeds; [4]): 970 nM
P. aegyptiaca germination rate (P. aegyptiaca seeds): 32%
IC50 (ShHTL7): 6.9 ± 0.97 µM

CC1=CC(O/C=C(\C)C=O)OC1=O (centres unmarked) [MP13, (E)-2-methyl-3-[(4-methyl-5-oxo-2,5-dihydrofuran-2-yl)oxy]acrylaldehyde]
inhibition of hypocotyl growth (reduction in hypocotyl length) (Arabidopsis seedlings [1]): did not lead to a significant effect
inhibition of lateral root density (Arabidopsis seedlings [2]): did not lead to a significant effect
EC50 (P. aegyptiaca seeds; [3]): 250 nM
EC50 (P. aegyptiaca seeds; [4]): 32 nM
P. aegyptiaca germination rate (P. aegyptiaca seeds): around 68%
IC50 (ShHTL7): 3.87 ± 0.9 µM
Striga emergence (No. per plot), change vs control (Striga; formulated MP13, 0.5 μM, printed in Figure 8E): -41%
Striga plants counted at the end of the season (Striga; formulated MP13 applied twice, final conc. 0.5 μM, pearl millet, mock field 154): 91 plants m^−2

COC(=O)/C=C/C(C)=C/OC1C=C(C)C(=O)O1 (centres unmarked) [MP26, (2E,4E)-methyl 4-methyl-5-(4-methyl-5-oxo-2,5-dihydrofuran-2-yloxy)penta-2,4-dienoate]
inhibition at 1 µM (Arabidopsis seedlings [1]; Arabidopsis thaliana, read-out: inhibition of hypocotyl growth (reduction in hypocotyl length)): 15%
inhibition at 1 µM (Arabidopsis seedlings [2]; Arabidopsis thaliana): 43%
EC50 (P. aegyptiaca seeds; [3]): 99 nM
EC50 (P. aegyptiaca seeds; [4]): 520 nM
P. aegyptiaca germination rate (P. aegyptiaca seeds): around 68%
IC50 (ShHTL7): 5.3 ± 0.71 µM
